Test results published in patent US20230053607A1, “PESTICIDALLY ACTIVE FUSED BICYCLIC HETEROAROMATIC AMINO COMPOUNDS” (SYNGENTA CROP PROTECTION AG, priority 2019, published 2023).

Legend:
Plutella xylostella [1] = experiment: Plutella xylostella (diamond back moth), 24-well artificial diet, eggs; type: in vivo; settings: 192 h, application rate 200 ppm, 8 days after infestation, 24-well plates, read-out: control in at least one of the categories (mortality or growth inhibition)
Method: 24-well microtiter plates with artificial diet were treated with aqueous test solutions prepared from 10′000 ppm DMSO stock solutions by pipetting. After drying, Plutella eggs were pipetted through a plastic stencil onto a gel blotting paper and the plate was closed with it. The samples were assessed for mortality and growth inhibition in comparison to untreated samples 8 days after infestation. The following compounds gave an effect of at least 80% control in at least one of the categories (mortality or growth inhibition) at an application rate of 200 ppm: P1, P2, P3, P7, P10.

Plutella xylostella [2] = experiment: Plutella xylostella (diamondback moth), 96-well artificial diet, eggs; type: in vivo; settings: 216 h, application rate 500 ppm, 9 days after infestation, 96-well plates, read-out: control (mortality)
Method: 96-well microtiter plates containing artificial diet were treated with aqueous test solutions, prepared from 10′000 ppm DMSO stock solutions, by a liquid handling robot. After drying, eggs (˜30 per well) were infested onto a netted lid which was suspended above the diet. The eggs hatch and L1 larvae move down to the diet. The samples were assessed for mortality 9 days after infestation.

Chilo suppressalis = Chilo suppressalis (striped rice stemborer), artificial diet, L2 larvae; type: in vivo; settings: 144 h, application rate 200 ppm, 6 days after infestation, read-out: control in at least one of the categories (mortality, anti-feedant effect or growth inhibition)
Method: 24-well microtiter plates with artificial diet were treated with aqueous test solutions prepared from 10′000 ppm DMSO stock solutions by pipetting. After drying, the plates were infested with L2 larvae (6-8 per well). The samples were assessed for mortality, anti-feeding effect, and growth inhibition in comparison to untreated samples 6 days after infestation. Control of Chilo suppressalis by a test sample is given when at least one of the categories mortality, anti-feedant effect, and growth inhibition is higher than the untreated sample.

Diabrotica balteata = Diabrotica balteata (corn root worm), maize sprouts sprayed, L2 larvae; type: in vivo; settings: 96 h, application rate 200 ppm, 4 days after infestation, read-out: control in at least one of the categories (mortality or growth inhibition)
Method: Maize sprouts placed onto an agar layer in 24-well microtiter plates were treated with aqueous test solutions prepared from 10′000 ppm DMSO stock solutions by spraying. After drying, the plates were infested with L2 larvae (6 to 10 per well). The samples were assessed for mortality and growth inhibition in comparison to untreated samples 4 days after infestation. The following compounds gave an effect of at least 80% control in at least one of the categories (mortality or growth inhibition) at an application rate of 200 ppm: P1, P2, P3, P6, P7, P8, P10.

Spodoptera littoralis = Spodoptera littoralis (Egyptian cotton leaf worm), cotton leaf discs sprayed, L1 larvae; type: in vivo; settings: foliar, 72 h, application rate 200 ppm, 3 days after infestation, read-out: control in at least one of the categories (mortality, anti-feedant effect or growth inhibition)
Method: Cotton leaf discs were placed onto agar in 24-well microtiter plates and sprayed with aqueous test solutions prepared from 10′000 ppm DMSO stock solutions. After drying the leaf discs were infested with five L1 larvae. The samples were assessed for mortality, anti-feeding effect, and growth inhibition in comparison to untreated samples 3 days after infestation. Control of Spodoptera littoralis by a test sample is given when at least one of the categories mortality, anti-feedant effect, and growth inhibition is higher than the untreated sample.

Myzus persicae = Myzus persicae (green peach aphid): feeding/contact activity, sunflower leaf discs; type: in vivo; settings: foliar, 144 h, application rate 200 ppm, 6 days after infestation, mixed ages
Method: Sunflower leaf discs were placed onto agar in a 24-well microtiter plate and sprayed with aqueous test solutions prepared from 10′000 ppm DMSO stock solutions. After drying, the leaf discs were infested with an aphid population of mixed ages. The samples were assessed for mortality 6 days after infestation.

| Compound | melting point [°C] | percent control (mortality or growth inhibition) at 200 ppm (Plutella xylostella [1]) [%] | percent control (mortality or growth inhibition) at 200 ppm (Diabrotica balteata) [%] | percent control (mortality, anti-feedant effect or growth inhibition) at 200 ppm (Spodoptera littoralis) [%] | further results |
| --- | --- | --- | --- | --- | --- |
| CC(Nc1nn(C)c2c(Cl)cc(C(F)(F)F)cc12)c1nc(Br)nn1-c1ncccn1 (centres unmarked) [P11, N-[1-(5-bromo-2-pyrimidin-2-yl-1,2,4-triazol-3-yl)ethyl]-7-chloro-1-methyl-5-(trifluoromethyl)indazol-3-amine] | 262 to 264 | – | – | – | – |
| CC(Nc1nn(C)c2c(C(F)(F)F)cc(C(F)(F)F)cc12)c1nc(Br)nn1-c1ncccn1 (centres unmarked) [P10, N-[1-(5-bromo-2-pyrimidin-2-yl-1,2,4-triazol-3-yl)ethyl]-1-methyl-5,7-bis(trifluoromethyl)indazol-3-amine] | – | ≥ 80 | ≥ 80 | – | mortality at 500 ppm (Plutella xylostella [2]): ≥ 80%; percent control (mortality, anti-feedant effect or growth inhibition) at 200 ppm (Chilo suppressalis): ≥ 80% |
| COC(=O)c1cc(Cl)cc2c(N[C@@H](C)c3ncnn3-c3ccc(C#N)cn3)csc12 [P18, methyl 5-chloro-3-[[(1S)-1-[2-(5-cyano-2-pyridyl)-1,2,4-triazol-3-yl]ethyl]amino]benzothiophene-7-carboxylate] | – | – | – | – | mortality at 500 ppm (Plutella xylostella [2]): ≥ 80% |
| CC(Nc1noc2c(F)cc(F)cc12)c1nccnc1-n1nccn1 (centres unmarked) [P13, 5,7-difluoro-N-[1-[3-(triazol-2-yl)pyrazin-2-yl]ethyl]-1,2-benzoxazol-3-amine] | 199 to 201 | – | – | – | – |
| CC(c1nccnc1-c1ncccn1)N(CC1CC1)c1nn(C)c2c(Cl)cc(C(F)(F)F)cc12 (centres unmarked) [P8, 7-chloro-N-(cyclopropylmethyl)-1-methyl-N-[1-(3-pyrimidin-2-ylpyrazin-2-yl)ethyl]-5-(trifluoromethyl)indazol-3-amine] | – | – | ≥ 80 | ≥ 80 | mortality at 500 ppm (Plutella xylostella [2]): ≥ 80% |
| CC(Nc1nn(C)c2c(C(F)(F)F)cc(C(F)(F)F)cc12)c1ncnn1-c1ncccn1 (centres unmarked) [P6, 1-methyl-N-[1-(2-pyrimidin-2-yl-1,2,4-triazol-3-yl)ethyl]-5,7-bis(trifluoromethyl)indazol-3-amine] | – | – | ≥ 80 | ≥ 80 | percent control (mortality, anti-feedant effect or growth inhibition) at 200 ppm (Chilo suppressalis): ≥ 80% |
| CC(Nc1c(C#N)sc2c(C(F)(F)F)cc(C(F)(F)F)cc12)c1ncnn1-c1ccc(C#N)cn1 (centres unmarked) [P4, 6-[5-[1-[[2-cyano-5,7-bis(trifluoromethyl)benzothiophen-3-yl]amino]ethyl]-1,2,4-triazol-1-yl]pyridine-3-carbonitrile] | 192 to 194 | – | – | – | – |
| CC(Nc1noc2c(F)cc(F)cc12)c1nccnc1-n1ccnn1 (centres unmarked) [P12, 5,7-difluoro-N-[1-[3-(triazol-1-yl)pyrazin-2-yl]ethyl]-1,2-benzoxazol-3-amine] | – | – | – | – | mortality at 200 ppm (Myzus persicae): ≥ 80% |
| CC(Nc1noc2ccc(Br)cc12)c1ncnn1-c1ccc(C#N)cn1 (centres unmarked) [P16, 6-[5-[1-[(5-bromo-1,2-benzoxazol-3-yl)amino]ethyl]-1,2,4-triazol-1-yl]pyridine-3-carbonitrile] | 175 to 177 | – | – | – | – |
| CC(c1nccnc1-c1ncccn1)N(CC1CC1)c1nn(C)c2c(C(F)(F)F)cc(C(F)(F)F)cc12 (centres unmarked) [P7, N-(cyclopropylmethyl)-1-methyl-N-[1-(3-pyrimidin-2-ylpyrazin-2-yl)ethyl]-5,7-bis(trifluoromethyl)indazol-3-amine] | – | ≥ 80 | ≥ 80 | ≥ 80 | percent control (mortality, anti-feedant effect or growth inhibition) at 200 ppm (Chilo suppressalis): ≥ 80% |
| CC(Nc1noc2c(Cl)cc(C(F)(F)F)cc12)c1nc(Br)nn1-c1ncccn1 (centres unmarked) [P9, N-[1-(5-bromo-2-pyrimidin-2-yl-1,2,4-triazol-3-yl)ethyl]-7-chloro-5-(trifluoromethyl)-1,2-benzoxazol-3-amine] | 160 to 163 | – | – | – | – |
| CC(Nc1noc2ccc(Br)cc12)c1ncnn1-c1ncccn1 (centres unmarked) [P17, 5-bromo-N-[1-(2-pyrimidin-2-yl-1,2,4-triazol-3-yl)ethyl]-1,2-benzoxazol-3-amine] | 233 to 235 | – | – | – | – |
| COC(=O)c1sc2c(C(F)(F)F)cc(C(F)(F)F)cc2c1NC(C)c1ncnn1-c1ccc(C#N)cn1 (centres unmarked) [P5, methyl 3-[1-[2-(5-cyano-2-pyridyl)-1,2,4-triazol-3-yl]ethylamino]-5,7-bis(trifluoromethyl)benzothiophene-2-carboxylate] | 195 to 197 | – | – | – | – |
| CC(Nc1snc2c(C(F)(F)F)cc(C(F)(F)F)cc12)c1ncnn1-c1ncccn1 (centres unmarked) [P1, N-[1-(2-pyrimidin-2-yl-1,2,4-triazol-3-yl)ethyl]-5,7-bis(trifluoromethyl)-2,1-benzothiazol-3-amine] | – | ≥ 80 | ≥ 80 | ≥ 80 | – |
| C[C@H](Nc1snc2c(C(F)(F)F)cc(C(F)(F)F)cc12)c1ncnn1-c1ccc(C#N)cn1 [P2, 6-[5-[(1S)-1-[[5,7-bis(trifluoromethyl)-2,1-benzothiazol-3-yl]amino]ethyl]-1,2,4-triazol-1-yl]pyridine-3-carbonitrile] | – | ≥ 80 | ≥ 80 | ≥ 80 | – |
| CC(c1ncnn1-c1ccc(C#N)cn1)N(C)c1c(C#N)sc2c(C(F)(F)F)cc(C(F)(F)F)cc12 (centres unmarked) [P3, 6-[5-[1-[[2-cyano-5,7-bis(trifluoromethyl)benzothiophen-3-yl]-methyl-amino]ethyl]-1,2,4-triazol-1-yl]pyridine-3-carbonitrile] | – | ≥ 80 | ≥ 80 | – | percent control (mortality, anti-feedant effect or growth inhibition) at 200 ppm (Chilo suppressalis): ≥ 80% |
